From PubChem BioAssay (NCI)
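1) Cells in 96-well plates. 2) Compound, 48 h, 5 concentrations. 3) Linear interpolation between surrounding doses. 4) Unreached endpoint = highest concentration. Abbreviation: GI50, concentration required for 50% inhibition of growth. TGI marks complete inhibition of growth.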

Assays:
Assay in all cases: NCI tumour cell line growth inhibition, 48 h
[1] = tested on: IGROV1 ovarian
[2] = tested on: RXF 393 renal
[3] = tested on: SF-268 CNS
[4] = tested on: HCT-116 colon
[5] = tested on: HL-60(TB) leukemia
[6] = tested on: A549 NSCLC
[7] = tested on: LOX IMVI melanoma
[8] = tested on: MCF7 breast
[9] = tested on: MALME-3M melanoma
[10] = tested on: DU-145 prostate

| SMILES | TGI [1] [µM] | TGI [2] [µM] | TGI [3] [µM] | TGI [4] [µM] | TGI [5] [µM] | TGI [6] [µM] | TGI [7] [µM] | GI50 [1] [µM] | GI50 [2] [µM] | GI50 [8] [µM] | TGI [8] [µM] | GI50 [3] [µM] | GI50 [6] [µM] | GI50 [7] [µM] | TGI [9] [µM] | GI50 [4] [µM] | GI50 [10] [µM] | TGI [10] [µM] | GI50 [9] [µM] | GI50 [5] [µM] |
| --- | --- | --- | --- | --- | --- | --- | --- | --- | --- | --- | --- | --- | --- | --- | --- | --- | --- | --- | --- | --- |
| CC(C)=NNC(=S)NC12CC3CC(CC(C3)C1)C2 | > 100 | > 100 | > 100 | > 100 | > 100 | > 100 | > 100 |  |  |  |  |  |  |  |  |  |  |  |  |  |
| NC(N)=N/N=C/c1c(-c2cccnc2)nc2sc(Cl)cn12 | 58.5 | 36.7 | 52.7 |  |  | 40.1 | 24.8 | 17.5 | 17.2 | 8.27 | > 100 | 20.7 | 18.7 | 12.4 |  |  |  |  |  |  |
| C=C1CC2(CCS(=O)(=O)c3ccccc32)OC1=O (configuration not stated) | 34.1 |  | 38.4 |  | 8.64 | 35.2 | 33.3 |  |  |  |  |  |  |  | 26.3 |  |  |  |  |  |
| COC12OCCN(C)C1=CC(=O)C1(C)N=NCC12 (configuration not stated) | > 100 | > 100 |  | > 100 |  | > 100 | > 100 |  |  |  |  |  |  |  | > 100 |  |  |  |  |  |
| CCOC(=O)CN(c1ccccc1)c1nc(=[N+](C)C)ss1 |  | > 100 | > 100 | > 100 | 48.4 | > 100 |  |  |  |  |  |  |  |  | 70.4 |  |  |  |  |  |
| Cc1ccc(C(=O)NCCN(C)C)c2nc3ccccc3cc12 | > 100 | 3.29 |  | 10.9 | > 100 | 4.53 | 10.4 |  |  |  |  |  |  |  | > 100 |  |  |  |  |  |
| COC(=O)C1[C@H](c2ccc3c(c2)OCO3)OC(=O)[C@]1(C(=O)OC)C(=O)c1ccc(OC)c(OC)c1 (some centres not stated) | > 100 |  |  |  | 55.2 |  | 36.1 |  |  |  |  |  |  |  | > 100 |  |  |  |  |  |
| Cc1ccc(S(=O)(=O)OCCOCCOCCOCCOCCOS(=O)(=O)c2ccc(C)cc2)cc1 | > 100 | > 100 | > 100 | > 100 |  | > 100 | > 100 |  |  |  |  |  |  |  | > 100 |  |  |  |  |  |
| C=CC(=O)Nc1cccc(Oc2nc(Nc3ccc(N4CCN(C)CC4)cc3OC)ncc2Cl)c1 | 3.56 | 3.12 | 9.24 | 3.06 |  | 3.33 | 2.99 | 1.29 | 1.49 |  |  | 2.37 | 1.46 | 1.58 |  | 1.64 | 1.59 | 6.07 |  |  |
| N#CCc1nnc(N)o1 | > 100 |  | > 100 | > 100 | > 100 | > 100 | > 100 |  |  |  |  |  |  |  | > 100 |  |  |  |  |  |
| C=C1C(=O)O[C@H]2[C@H]1CC/C(CNC(=O)/C=C/c1ccccc1F)=C\CC[C@@]1(C)O[C@@H]21 | 4.65 | 2.7 | 9.8 | 1.69 |  | 24.5 | 2.56 | 1.69 | 1.24 |  |  | 2.83 | 7 | 1.19 | 3.52 | 0.482 | 1.03 | 2.26 | 1.54 |  |
| CC[PH+](CC)CC.CC[PH+](CC)CC.[Au] | 34.3 |  | 30.1 | 32.9 | 2.09 | 53.1 | 24.2 | 14.5 |  |  |  | 13.4 | 22.8 | 8.67 | 24.7 | 16 |  |  | 11.4 | 0.345 |
| O=C(O)CN(c1ccc(F)cc1)S(=O)(=O)c1ccccc1 | > 100 | > 100 | > 100 |  | > 100 | > 100 | > 100 |  |  |  |  |  |  |  | > 100 |  |  |  |  |  |
| O=C1C(=O)N(c2ccc(Cl)cc2)C(=O)C(=Nc2cccc3c(=O)[nH][nH]c(=O)c23)C1c1nc2ccccc2o1 (configuration not stated) | > 100 |  | > 100 | > 100 | > 100 | > 100 | > 100 |  |  |  |  |  |  |  | > 100 |  |  |  |  |  |
| CC(=O)OCCCC#CC#Cc1cccc(=O)o1 | > 100 | 43.8 | 41.1 | 29.1 |  | 42.9 | 54 | 18.7 | 24.3 | 20.3 | 43.5 | 19.4 | 20.4 | 15.8 |  | 14.6 | 11.7 | 26.8 |  |  |
| COc1ccc2nc3cccc([N+](=O)[O-])c3c(NC(C)CN(C)C)c2c1 (configuration not stated) | 5.54 |  | 11.9 | 7.49 |  | 8.93 | 5.04 | 1.67 |  | 1.17 | 4.36 | 2.64 | 3.48 | 1.91 |  | 1.44 | 1.89 | 14.2 |  | 2.67 |
| COc1cc(O)c2c(c1)C(=O)C1=C(C2=O)C(O)C[C@@](C)(O)C1 (some centres not stated) | 3.71 | 3.05 | 4.47 | 2.22 | 1.5 | 11.5 | 1.68 |  |  |  |  |  |  |  | 2.11 |  |  |  |  |  |
| O=C(CSSCC(=O)Nc1ccc(Br)cc1)Nc1ccc(Br)cc1 | 39 | 33.2 | 26.6 | 28.1 | 48.5 | 35.8 | 26.3 |  |  |  |  |  |  |  | 43 |  |  |  |  |  |
